According to ChEMBL document CHEMBL1133053, “(S)-Thiirancarboxylic acid as a reactive building block for a new class of cysteine protease inhibitors” (Bioorg Med Chem Lett, 2000):

Experiments:
Papain = target: T1, Papain (Carica papaya, UniProt P00784); test: The compound was evaluated for inhibition of papain.
T1 sequence (P00784 whole entry): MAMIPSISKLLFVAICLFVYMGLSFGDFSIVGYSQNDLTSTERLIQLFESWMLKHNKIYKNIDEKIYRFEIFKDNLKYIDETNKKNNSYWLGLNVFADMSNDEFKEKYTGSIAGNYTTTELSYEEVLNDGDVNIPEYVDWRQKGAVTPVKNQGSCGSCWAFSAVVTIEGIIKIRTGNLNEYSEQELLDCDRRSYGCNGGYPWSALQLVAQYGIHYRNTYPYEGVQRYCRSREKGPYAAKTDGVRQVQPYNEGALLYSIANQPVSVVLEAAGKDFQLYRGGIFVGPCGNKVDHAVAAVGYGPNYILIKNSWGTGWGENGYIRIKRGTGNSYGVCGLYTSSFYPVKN

Papain (Carica papaya) [1] = target: T2, Papain (Carica papaya) (UniProt P00784); test: The second order rate constant of inactivation was reported
T2 sequence (whole entry): T1 sequence (P00784 whole entry)

Papain (Carica papaya) [2] = target: T2, Papain (Carica papaya); test: The second order rate constant of inactivation was reported at pH 4
Papain (Carica papaya) [3] = target: T2, Papain (Carica papaya); test: The first order rate constant of inactivation was reported

Row | Compound | IC50 (Papain) | K2 (Papain (Carica papaya) [1]) | other results
1 | CCOC(=O)C1OC1C(=O)OCC (stereo unspecified) | 207 nM | – | –
2 | CCOC(=O)[C@H]1O[C@@H]1C(=O)OCC | – | 1.73 M⁻¹ s⁻¹ | –
3 | O=C(O)[C@@H]1CN1 | – | 17 M⁻¹ s⁻¹ | –
4 | CCOC(=O)[C@H]1N[C@@H]1C(=O)OCC | – | 0.183 M⁻¹ s⁻¹ | K2 (Papain (Carica papaya) [2]): 1.02 M⁻¹ s⁻¹
5 | CCOC(=O)[C@H]1N[C@@H]1C(=O)O | – | 78.2 M⁻¹ s⁻¹ | K2 (Papain (Carica papaya) [2]): 413 M⁻¹ s⁻¹
6 | COC(=O)[C@H]1CS1 | 200 nM | – | K1 (Papain (Carica papaya) [3]): 0.2 µM
7 | CCOC(=O)C1OC1C(=O)O (stereo unspecified) | 10.5 nM | – | –
8 | CCOC(=O)[C@@H]1N[C@H]1C(=O)O | – | 58.8 M⁻¹ s⁻¹ | –
9 | CCOC(=O)[C@@H]1O[C@H]1C(=O)OCC | – | 1.68 M⁻¹ s⁻¹ | –
10 | CCOC(=O)[C@H]1CS1 | 570 nM | – | K1 (Papain (Carica papaya) [3]): 0.57 µM
11 | O=C(O)[C@H]1CS1 | – | 3.7 M⁻¹ s⁻¹ | –
12 | CCOC(=O)[C@@H]1N[C@H]1C(=O)OCC | – | 0.2 M⁻¹ s⁻¹ | –
